Data reported in PMC10693528, “A high-throughput metabolomics in vitro platform for the characterization of hepatotoxicity” (Cell Biology and Toxicology, 2023).

How the values were obtained:
[1] = Cell viability (ATP, CellTiter-Glo) in parallel with metabolomics experiments; settings: human, Percentage of viability (ATP) compared to the vehicle control, n = 6
Description: HepG2 cells (ECACC, UK, maximum passage number 9) were maintained and grown on Dulbecco’s MEM media supplemented with 1% v/v of penicillin/streptomycin, L-glutamine (200 mM, 1% v/v), non-essential amino acids (100x, 1% v/v), and 10% FBS (PAN-Biotech, Aidenbach, Germany) in 75 cm^2 culture flasks (TPP, Switzerland). For cell passaging (~ 80% confluency) media was removed and cells were washed twice with pre-warmed calcium and magnesium free Dulbecco’s PBS (PAN-Biotech, Aidenbach, Germany). Trypsin was used for cell detachment. Then, 20 mL culture medium was added, and single-cell suspensions were obtained by passing the suspension through a Combitip (Eppendorf, Germany). A fraction of the cell suspension was then transferred to a new culture vessel. For experiments, 15,000 cells per well (passage 5-9) were seeded in 96-well flat-bottom plates (TPP, Switzerland) and incubated for 24 h for cell attachment (37 °C and 5% CO^2). Afterwards, culture media were exchanged, test substances applied, and plates incubated for 48 h (37 °C and 5% CO^2).
For each substance, one 96-well plate was set up with 6 replicates per concentration, 12 replicates for vehicle controls (yielding a final concentration of 0.5% DMSO in the well), 6 replicates for positive controls (Bezafibrate 1000 μM), and 6 replicates for blank controls (media without cells). To minimize potential evaporation, the outer rows and columns of the plate were omitted and filled with PBS instead. Reference samples prepared from lyophilized HepG2 cells were measured in parallel throughout the entire analytical process (technical replicates). […] Lyophilized HepG2 cells reference samples were used to account for variability between plates and in concentration series for linearity checks. After 48 h, the assays were stopped by washing the wells once with 100 μL 0.9% NaCl followed by snap freezing the plates on liquid nitrogen for 5 s. Plates were placed immediately on dry ice and 50 μL ice-cooled isopropanol 80% (v/v) were added to quench metabolism and precipitate proteins. Plates were stored at − 80 °C until LC/ MS analysis.

HepG2 cells = assay: Cytotoxicity (CellTox Green) in parallel with metabolomics experiments; settings: intermediate concentration (C3; C2 for aroclor), 48 h
Description: Commercially available cytotoxicity (CellTox™ Green) and ATP content based (CellTiter-Glo®) assays (Promega GmbH, Walldorf, Germany) were multiplexed in a single 96-well plate following the manufacturer’s instructions. For positive controls, lysis solution 25X was added in wells containing vehicle control treated cells (0.5% DMSO). Then, 10X CellTox Green reagent was added in all wells, plates were shaken for 1 min, and incubated in the dark for 15 min at room temperature. […] Afterwards, wells were washed with PBS, 100 μL of Dulbecco’s MEM media were added to each well and subsequently 100 μL of 1X CellTiter-Glo were added. Plates were shaken for 2 min and incubated in the dark for 8 min at room temperature. Luminescence was measured in the GloMax®-Multi Detection System (Promega) and was normalized to the values of the vehicle control. Cytotoxicity and ATP cell viability analysis were carried out for range finder pre-tests and in parallel with metabolomics experiments in plates handled and treated exactly as the ones used for metabolite profiling.

Row | SMILES | viability at 48 h ([1]; C1, C1, 48 h) | viability at 48 h ([1]; C2, C2, 48 h) | viability at 48 h ([1]; C3, C3, 48 h) | viability at 48 h ([1]; C4, C4, 48 h) | viability at 48 h ([1]; C5, C5, 48 h) | cytotoxicity (CellTox Green) (HepG2 cells) | viability at 48 h ([1]; HepG2 cells, C1, C1, 48 h) | viability at 48 h ([1]; HepG2 cells, C2, C2, 48 h) | viability at 48 h ([1]; HepG2 cells, C3, C3, 48 h) | viability at 48 h ([1]; HepG2 cells, C4, C4, 48 h) | viability at 48 h ([1]; HepG2 cells, C5, C5, 48 h)
1 | CCC(CC)Nc1c([N+](=O)[O-])cc(C)c(C)c1[N+](=O)[O-] [Pendimethalin] | 98.3 ± 3.9% | 100 ± 2.9% | 82.4 ± 4.9% | 36.1 ± 3.2% | 18.5 ± 3.2% | low cytotoxicity |  |  |  |  | 
2 | O=c1cc(-c2ccccc2)oc2ccc3ccccc3c12 [β-naphthoflavone] |  |  |  |  |  | low cytotoxicity | 103 ± 4.3% | 114 ± 3.7% | 104 ± 1.6% | 34.5 ± 3.4% | 15 ± 2.1%
3 | O=C(O)c1cc(Oc2ccc(C(F)(F)F)cc2Cl)ccc1[N+](=O)[O-] [Acifluorfen] |  |  |  |  |  | low cytotoxicity | 105 ± 4.2% | 105 ± 4.8% | 99.9 ± 1.3% | 58.4 ± 1.5% | 27.8 ± 1.3%
4 | Cc1cccc(Nc2cc(Cl)nc(SCC(=O)O)n2)c1C [Wy-14643] |  |  |  |  |  | low cytotoxicity | 101 ± 3.8% | 97.1 ± 3.1% | 94.6 ± 1.8% | 46.4 ± 2% | 23.2 ± 1.1%
5 | CC(=O)N1CCN(c2ccc(OCC3COC(Cn4ccnc4)(c4ccc(Cl)cc4Cl)O3)cc2)CC1 (centres unmarked) [Ketoconazole] |  |  |  |  |  |  | 102 ± 3.1% | 102 ± 0.9% | 91.2 ± 1.5% | 64.7 ± 1.5% | 28.2 ± 1.9%
